The values below come from article PMC8510274, “Plasma-Induced Oxidation Products of (–)-Epigallocatechin Gallate with Digestive Enzymes Inhibitory Effects” (Molecules, 2021).

Where two headings read alike, the source gives them in different places.

The target in experiment [1] is T1, α-glucosidase (EC 3.2.1.20) from Saccharomyces cerevisiae (Saccharomyces cerevisiae, UniProt P53341).
T1 construct: purchased Sigma-Aldrich
Nature of the experiment: biochemical. How it is done: (§1) The specific optical rotation was obtained using a JASCO P-2000 polarimeter (JASCO, Tokyo, Japan), and fast atom bombardment mass spectrometry (FABMS) was recorded on a JMS-700 spectrometer (JEOL, Tokyo, Japan) in negative mode.
The α-glucosidase inhibitory activities of the compounds were evaluated using a minor modification of a previously reported method. The reaction mixture consisted of an enzyme solution (0.5 unit of α-glucosidase, 90 μL), a substrate (1 mM p-NPG, 100 μL) in a 0.1 M phosphate buffer (pH 7.0), and the isolated compounds, and positive control in 5% DMSO (10 μL). After incubation at 37 °C for 30 min, 0.1 M NaOH was added to quench the reaction.
(§2) The α-amylase inhibition assay was performed using a previously reported method with slight modifications. Porcine pancreatic α-amylase (1 unit, 90 µL) was incubated with the sample, and the positive control, at various concentrations. The reaction was started by adding 100 µL of a 1% potato starch solution, in 20 mM phosphate buffer (pH 6.9), to the reaction mixture. […] The mixture was then boiled at 80 °C for 10 min in a water bath and then cooled on ice. The α-amylase inhibitory activity was measured at 540 nm using an ELISA reader. Enzyme inhibition (%) = [1−(A1/A0)] × 100(1) where A0 and A1 are the absorbance of the control and sample, respectively. The α-glucosidase and α-amylase inhibition (%) was calculated, and the half-maximal inhibitory concentration (IC50) was determined by linear regression analysis of the inhibitory activities under the assay conditions.

Experiment [2] deals with T2, Porcine pancreatic α-amylase (Sus scrofa, UniProt P00690).
T2 construct: purchased Sigma-Aldrich; host or cells: porcine pancreas
T2 sequence (P00690 16-511): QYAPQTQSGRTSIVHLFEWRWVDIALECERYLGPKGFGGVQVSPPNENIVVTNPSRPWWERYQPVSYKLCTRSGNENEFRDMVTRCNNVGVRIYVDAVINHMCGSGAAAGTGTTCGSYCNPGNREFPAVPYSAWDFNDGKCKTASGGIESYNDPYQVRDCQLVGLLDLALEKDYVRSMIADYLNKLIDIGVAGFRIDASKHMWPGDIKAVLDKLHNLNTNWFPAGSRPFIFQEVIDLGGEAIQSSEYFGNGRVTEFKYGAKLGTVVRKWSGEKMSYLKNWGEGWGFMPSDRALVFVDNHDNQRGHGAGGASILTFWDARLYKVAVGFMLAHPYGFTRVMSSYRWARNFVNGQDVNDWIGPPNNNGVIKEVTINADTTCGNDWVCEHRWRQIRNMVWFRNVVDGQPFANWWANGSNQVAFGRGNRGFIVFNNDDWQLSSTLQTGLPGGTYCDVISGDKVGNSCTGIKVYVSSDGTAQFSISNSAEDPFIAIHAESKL
Nature of the experiment: α-amylase inhibition assay (potato starch, DNS reagent). The format is biochemical. How it is done:
as §1, §2

[3] abbreviates: IC50 Value α-Glucosidase, isolated compounds, triplicate, acarbose positive control.
Setting [4] is: isolated compounds, triplicate, acarbose positive control, read-out: IC50 Value α-Amylase (converted).

T1 sequence (P53341 whole entry): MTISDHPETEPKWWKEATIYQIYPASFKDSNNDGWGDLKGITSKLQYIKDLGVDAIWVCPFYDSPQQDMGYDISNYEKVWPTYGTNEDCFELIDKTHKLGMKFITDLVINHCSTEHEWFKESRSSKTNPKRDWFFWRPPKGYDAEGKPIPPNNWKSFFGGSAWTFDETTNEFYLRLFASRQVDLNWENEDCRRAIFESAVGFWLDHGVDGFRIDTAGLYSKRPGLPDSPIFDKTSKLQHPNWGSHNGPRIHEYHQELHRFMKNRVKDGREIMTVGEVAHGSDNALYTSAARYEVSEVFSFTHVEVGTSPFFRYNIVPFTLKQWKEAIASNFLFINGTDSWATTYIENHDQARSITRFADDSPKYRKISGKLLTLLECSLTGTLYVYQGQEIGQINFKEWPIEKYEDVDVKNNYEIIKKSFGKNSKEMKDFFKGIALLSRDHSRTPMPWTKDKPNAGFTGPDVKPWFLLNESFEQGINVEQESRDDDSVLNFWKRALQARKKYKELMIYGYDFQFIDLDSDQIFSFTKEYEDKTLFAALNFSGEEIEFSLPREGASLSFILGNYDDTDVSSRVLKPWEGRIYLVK

Take `O=C(O[C@@H]1Cc2c(O)cc(O)cc2O[C@@H]1C1=CC(=O)[C@]2(O)C(=O)c3c(cc(O)c(O)c3O)[C@H]12)c1cc(O)c(O)c(O)c1` [Compound 2, theacitrinin A]: the IC50 (usually the point on the concentration scale where inhibition reaches its midpoint) was determined as 20.7 ± 0.5 µM in experiment [1] (setting [3]) and 25.3 ± 0.6 µM in experiment [2].

For the compound `O=C(O[C@@H]1Cc2c(O)cc(O)cc2O[C@@H]1c1cc(O)c(O)c(O)c1)c1cc(O)c(O)c(O)c1` [EGCG, (−)-Epigallocatechin gallate, reference compound], the IC50 in experiment [1] (setting [3]) was 97.2 ± 1.2 µM; in experiment [1] (IC50 Value α-Glucosidase, plasma irradiation time 0 min (control, parent EGCG)), 97.1 µM; in experiment [2] (setting [4]), 75.5 ± 1.3 µM; in experiment [2] (plasma irradiation time 0 min (control, parent EGCG), read-out: IC50 Value α-Amylase (converted)), 75.3 µM.

On to `O=C(O[C@@H]1Cc2c(O)cc(O)cc2O[C@@H]1C1=CC(=O)C2(O)C3C([C@H]4Oc5cc(O)cc(O)c5C[C@H]4OC(=O)c4cc(O)c(O)c(O)c4)=CC(=O)C4(O)C1C2(O)OC34O)c1cc(O)c(O)c(O)c1` (stereo partly shown) [Compound 1, EGCG quinone dimer A], for which the IC50 in experiment [1] (read-out: IC50 Value α-Glucosidase) is 15.9 ± 0.3 µM; in experiment [2] (setting [4]) it was 18.7 ± 0.3 µM.

Regarding `O=C(O)c1cc(O)c(O)c(O)c1` [Compound 3, gallic acid], the IC50 in experiment [1] (setting [3]) and in experiment [2] was over 300 µM throughout.
